Results reported in US20250324983A1, “METHOD AND APPARATUS FOR CONTROLLING ARTHROPODS USING MASSOIA ESSENTIAL OIL AND RELATED PYRONES” (The United States of America, as Represented by the …, priority 2024, published 2025).

Legend:
[1] = tested on: Aedes aegypti; assay: Spatial repellency, high-throughput glass tube assay; format: in vivo; details: concentration repelling 50% of adult female Aedes aegypti, treated filter paper in glass tube
Description: Adult female non-bloodfed Aedes aegypti that were 2-10 days post-eclosion were cold-anesthetized by placing on ice for several minutes. Each replicate consisted of 16 anesthetized females transferred to a glass tube (length 12.5 cm, outer diameter 2.5 cm) (TriKinetics Inc., Waltham, MA). Glass tubes were then enclosed on each end by netting held in place with blue caps removed from 50-mL polypropylene centrifuge tubes (Falcon™; Corning Inc., Corning, NY). Mosquitoes were allowed at least 15 min to recover from cold anesthetization. Round filter papers (diameter 2.5 cm) (Sigma-Aldrich Chemical Co., CITY, ST) were treated with 50 μL solution of compound dissolved in acetone at different concentrations. Treated filter papers were allowed to air dry for 10 min to allow for acetone evaporation, at which point filter papers were placed inside the cut ends of 50-mL polypropylene centrifuge tubes. The end caps with treated filter paper were then placed on the ends of the glass tubes, replacing the blue caps, with the netting left to prevent mosquito escape.
Glass tube bioassay setups were placed on a contrasting white background to facilitate observing and counting mosquitoes with a black line drawn to mark the center of the tube length. Control bioassays were set up with filter papers treated with 50 μL of acetone. Repellency was calculated as a repellency ratio using the formula: number of mosquitoes on the experimental treatment side/16, where a value of 0 is equal to full repellency and a value of 0.5 indicates no effect—i.e., an even distribution of mosquitoes on either side the tube midline. Data were recorded at 15 min, 30 min, and 1 hr for repellency and knockdown, as well as at 24 hr for mortality. […] Each concentration was replicated at least three times. After use, glass tubes were decontaminated by washing in soapy water and rinsed with acetone and distilled water. Treatment caps and nettings were washed using soapy water and rinsed with distilled water. Data were analyzed using a 4-parameter logistic regression in GraphPad Prism 9. The effective concentration that repelled 50% of mosquitoes (EC50) was used to compare different treatments.

[2] = tested on: mosquitoes or biting flies; assay: Contact repellency, cloth patch test (minimum effective dose); format: in vivo; details: minimum effective dose on cloth
Description: The cloth patch test can be used to assess the effective repellency duration for a particular application rate of a chemical to cloth being worn on the arm of a human subject. The test allows candidate repellents to be tested without contacting the skin. The candidate substance is dissolved initially in a suitable solvent which is typically acetone; however, can be extended to ethanol or DMSO (dimethyl sulfoxide). The typical protocol for a limited quantity of substance involves dissolving up to 75 mg of the candidate repellent into 1 mL of an appropriate volatile solvent, such as acetone or ethanol, in a 2-dram vial. The choice of solvent depends upon the miscibility characteristics of the candidate repellent. A 50 cm^2 (5 cm×10 cm) clean, untreated piece of muslin cloth is rolled, placed in the vial and sealed therein to allow the cloth to saturate completely with the solution. […] Prior to the bioassay, the saturated cloth is removed and each end of the cloth is attached to a 5 cm×2.5 cm piece of cardstock paper. To each card, masking tape is attached. The card/cloth assembly is then allowed to dry for 15 min hanging from a rack by the masking tape. This time is adequate to allow complete evaporation of the solvent from the cloth.
To prepare the arm for testing, the volunteer first places a latex or nitrile glove (extended length beyond the wrist) over the hand and arm and then pulls a nylon hose stocking over the hand and arm up to a point that is past the elbow. This glove prevents mosquitoes from biting through to the hand, wrist, and part of the arm where the glove provides protection. A thick plastic sleeve with a Velcro® strip is then fastened around the arm. There is a 4 cm×8 cm window opening cut into the sleeve. Volunteers may elect to use either of the two designs of this sleeve: one has a window opening with a screen mesh, the other is completely open. The cloth card frame is then taped onto the forearm at a position overlapping the window opening of the sleeve. This allows attractive human odors to escape through the opened area of the sleeve and this small window is the only area accessible for bites. Once the cloth/card assembly is on the arm, the arm is placed inside an insect cage with mosquitoes or biting flies for one minute. Typically, the test involves 500 biting flies or mosquitoes, but can be performed at a variety of biting pressures from 200-2000 individuals, but is rarely ever performed at a pressure of greater than 2000 in a cage. […]
If a sufficient quantity of the candidate repellent is available, the minimum effective dose (MED) can be determined. […] In these cases, stoichiometric equivalents, i.e., micromolar quantities, are applied to the cloth and tested as described above. […]

[3] = tested on: Aedes albopictus; details: compounds identified from massoia and nutmeg essential oils; cited from earlier work
[4] = tested on: central nervous system (CNS) of third-fourth-instar Aedes aegypti larvae; assay: Central nervous system recording of mosquito larvae; details: applied at 100 μM
Description: Extracellular recordings were performed on the central nervous system (CNS) of third-fourth-instar Aedes aegypti larvae as previously described in Norris et al., “Recording central neurophysiological output from mosquito larvae for neuropharmacological and insecticide resistance studies”, Journal of Insect Physiology, 135 (2021) 104319. Mosquito larvae were pinned down and dissected to expose the descending ventral nerve cord in a saline bath (157 mM NaCl, 3 mM KCl, 2 mM CaCl2), 4 mM HEPES). The ventral nerve cord was severed using a small forceps between the second and third abdominal ganglion. Descending electrical activity was monitored by drawing emanating nerve fibers from the ventral nerve cord into a suction electrode connected to an AC/DC differential amplifier (Model 3000, A-M Systems, Inc., Carlsborg, WA). Signals were subjected to window amplitude discrimination and converted into a rate plot, expressed in Hertz (Hz), using LabChart 7 Pro software (AD Instruments Inc. Colorado Springs, CO). Noise (60 Hz) was eliminated using a Hum Bug (A-M Systems, Sequim, WA,).
Electrical activity was monitored for approximately 5-10 min to establish a baseline CNS firing rate before test solutions were added to the bath in DMSO at 1 μL of solution diluted into 999 μL of saline. All concentrations of active ingredients were expressed as their final concentrations in saline. […]

[5] = tested on: Aedes aegypti mosquitoes (susceptible—Orlando strain); assay: Topical application, knockdown and mortality; details: in vivo
Description: Aedes aegypti mosquitoes (susceptible—Orlando strain) were reared using standard protocols at the United States Department of Agriculture, Agricultural Research Service Center for Medical, Agricultural, and Veterinary Entomology (CMAVE) in Gainesville, FL. Mosquitoes raised from pupae were aspirated from colony cages and anesthetized on ice. Mosquitoes were then treated with 0.2 μL of variable concentrations of insecticidal active ingredients using a repeating microapplicator (Hamilton Co., Reno, NV). Ten mosquitoes were used per concentration and at least three different biological cohorts were used in the analysis. Knockdown (defined as inability to fly or orient in the upright direction) was recorded at 1 hr or other time points post application (depending on the experiment), whereas mortality (defined as no movement-ataxia) was recorded at 24 hr. Concentrations that produced 10-90% mortality at 24 hr post exposure were used in the analysis to calculate the lethal dose required to kill 50% of the population (LD50). SAS 9.4 was used to calculate the LD50 values using a PROC PROBIT model with Abbott's correction to account for any control mortality.

EC50 (spatial repellency) [1] [μg/cm^2]	Compound	larvicidal activity (in words) [3]	further results
108.5	C/C=C/C(=O)C1C(C)C=CCC1(C)C (centres unmarked) [δ-damascone]	–	–
–	CCN(CC)C(=O)c1cccc(C)c1 [DEET, N,N-Diethyl-meta-toluamide]	–	MED [2]: 0.009 ± 0.003 ^B mg/cm^2
29.5	δ-undecalactone	–	–
91.8	CCCCN(CCC(=O)OCC)C(C)=O [IR3535, ethyl butylacetylaminopropionate, reference compound]	–	–
–	CC1(C)C(C=C(Cl)Cl)C1C(=O)OCc1cccc(Oc2ccccc2)c1 (centres unmarked) [permethrin]	–	MED [2]: 0.100 ± 0.022 ^A mg/cm^2
–	O=C(OCc1ccccc1)c1ccccc1O [benzyl salicylate]	strong larvicidal activity	–
6.1	CCCCCc1cccc(=O)o1 [α-amyl-pyrone]	–	–
60.5	jasmolactone	–	–
–	O=C(OCc1ccccc1)c1ccccc1 [benzyl benzoate]	strong larvicidal activity	–
77.11	CCCCCCCC1CCCC(=O)O1 (centres unmarked) [5-dodecanolide]	–	–
5.9	CCCCCC1CC=CC(=O)O1 (centres unmarked) [massoia lactone, 2H-pyran-2-one, 5,6-dihydro-6-pentyl-]	strong larvicidal activity	nerve block (CNS firing) [4]: some nerve block; MED [2]: 0.007 ± 0.002 ^B mg/cm^2; Slope (LD50) [5]: 8.3
–	C=C1CCC2(C(C)C)CC12 (centres unmarked) [sabinene]	strong larvicidal activity	–
–	CCC(C)OC(=O)N1CCCCC1CCO (centres unmarked) [icaridin]	–	MED [2]: 0.015 ± 0.004 ^B mg/cm^2
–	CCCCCCC[C@@H]1CC=CC(=O)O1 [C12 massoia lactone, C-12-massoia lactone]	strong larvicidal activity	–
–	CC1=CCC(=C(C)C)CC1 [terpinolene]	strong larvicidal activity	–

Compound	EC50 (spatial repellency) [1] [μg/cm^2]	larvicidal activity (in words) [3]	further results
CCCCCCCC1CCC(=O)O1 (centres unmarked) [γ-undecalactone]	18.32	–	–
